Consider 2 compounds from US20250034151A1, “WEE1 INHIBITOR, PREPARATION THEREFOR, AND USE THEREOF” (JIANGSU TASLY DIYI PHARMACEUTICAL CO., LTD., priority 2022, published 2025).

SMILES strings stand for the structures.

One data set has as its target T1, CYP1A2 (Homo sapiens, UniProt P05177).
T1 sequence (P05177 1-516): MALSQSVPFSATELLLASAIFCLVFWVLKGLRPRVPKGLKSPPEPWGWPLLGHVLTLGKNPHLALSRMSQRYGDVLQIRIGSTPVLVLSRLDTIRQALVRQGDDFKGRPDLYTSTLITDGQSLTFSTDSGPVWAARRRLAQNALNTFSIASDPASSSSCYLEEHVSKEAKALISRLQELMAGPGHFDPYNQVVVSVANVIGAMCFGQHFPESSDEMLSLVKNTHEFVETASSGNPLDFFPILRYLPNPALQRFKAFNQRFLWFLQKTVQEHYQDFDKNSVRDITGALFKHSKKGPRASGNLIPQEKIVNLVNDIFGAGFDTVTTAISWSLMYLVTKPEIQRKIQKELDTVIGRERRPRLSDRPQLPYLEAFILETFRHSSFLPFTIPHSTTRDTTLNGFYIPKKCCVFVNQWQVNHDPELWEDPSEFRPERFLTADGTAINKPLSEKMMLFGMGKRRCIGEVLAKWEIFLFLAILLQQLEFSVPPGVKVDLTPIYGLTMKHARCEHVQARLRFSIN
Description: in vitro. Conditions: CYP1A2 enzyme, pH 7.4, probe EOMCC (0.01 mM).

A further data set concerns the target CYP2C19 (Homo sapiens, UniProt P33261). Description: in vitro. The note with it: CYP2C19 enzyme, pH 7.4, probe EOMCC (0.01 mM).
In a further data set the target is T2, CYP2C8 (Homo sapiens, UniProt P10632).
T2 sequence (P10632 1-490): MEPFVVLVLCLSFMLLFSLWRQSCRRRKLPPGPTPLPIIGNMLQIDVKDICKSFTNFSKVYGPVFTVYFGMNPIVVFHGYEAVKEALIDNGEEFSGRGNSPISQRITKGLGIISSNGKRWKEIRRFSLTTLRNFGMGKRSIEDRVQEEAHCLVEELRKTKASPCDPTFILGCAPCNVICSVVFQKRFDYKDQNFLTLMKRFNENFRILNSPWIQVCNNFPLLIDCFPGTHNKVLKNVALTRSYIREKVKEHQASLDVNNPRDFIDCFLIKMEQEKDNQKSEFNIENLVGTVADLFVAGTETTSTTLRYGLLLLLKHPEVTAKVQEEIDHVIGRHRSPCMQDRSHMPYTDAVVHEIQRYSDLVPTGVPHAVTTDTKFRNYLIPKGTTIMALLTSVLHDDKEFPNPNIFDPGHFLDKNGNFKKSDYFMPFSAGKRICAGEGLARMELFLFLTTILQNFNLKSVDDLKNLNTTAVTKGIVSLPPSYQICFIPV
Description: in vitro. The note with it: CYP2C8 enzyme, pH 7.4, probe DBOMF (0.001 mM).

A further data set deals with T3, CYP2B6 (Homo sapiens, UniProt P20813).
T3 sequence (P20813 1-491): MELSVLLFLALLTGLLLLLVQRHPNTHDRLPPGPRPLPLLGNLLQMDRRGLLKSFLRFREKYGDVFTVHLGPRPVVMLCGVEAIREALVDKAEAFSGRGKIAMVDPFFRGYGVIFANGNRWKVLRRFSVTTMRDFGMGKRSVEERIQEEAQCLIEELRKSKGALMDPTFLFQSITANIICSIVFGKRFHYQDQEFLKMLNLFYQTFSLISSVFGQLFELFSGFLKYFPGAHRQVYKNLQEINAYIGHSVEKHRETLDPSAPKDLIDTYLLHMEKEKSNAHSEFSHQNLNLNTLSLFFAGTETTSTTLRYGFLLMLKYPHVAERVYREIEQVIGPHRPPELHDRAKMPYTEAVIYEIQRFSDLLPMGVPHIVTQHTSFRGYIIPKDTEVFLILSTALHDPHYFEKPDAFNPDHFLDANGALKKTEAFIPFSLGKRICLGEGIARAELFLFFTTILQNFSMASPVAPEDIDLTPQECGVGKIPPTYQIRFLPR
In words: CYP450 isoform enzymatic inhibition, 2B6. The format is in vitro ADME. Conditions: CYP2B6 enzyme, pH 7.4, read-out: CYP inhibiton/% 2B6.

The next data set concerns the target CYP2D6 (Homo sapiens, UniProt P10635). Description: in vitro. The note with it: CYP2D6 enzyme, pH 7.4, probe EOMCC (0.01 mM).
A short description of data set [1]: Liver microsomes in vitro stability (mouse). The format is in vitro ADME. Conditions: read-out: T1/2/min. The protocol:
(§1) 1. Preparation of Working Solution:
(§2) Microsomes were taken out from the −80° C. refrigerator, rapidly melted in a 37° C. water bath and placed on ice until ready to use. The test article was diluted with DMSO to prepare a 10 mM stock solution, and then diluted with acetonitrile to a 0.5 mM secondary stock solution. […] NADPH was diluted with Buffer C to a working solution of 6 mM for the starter solution. An acetonitrile solution containing an internal standard was prepared as the precipitant, and Verapamil-HCl was chosen as the internal standard at a concentration of 4 ng/ml.
(§3) 2. Experimental Procedure:
(§4) A round-bottom well plate was taken, noted as the reaction plate, and the prepared working solution for each compound was dispensed into the well plate according to the number of replicates and time points (0 h samples were also added to the reaction plate), 30 μL/well; the plate was incubated at 37° C. for 10 min. A separate plate with pointed bottom wells, noted as a precipitation plate, was added with 135 μL precipitant per well; 0 h samples were transferred to the plate after 10 min incubation and 15 μL of starter solution was added; the plate was placed on ice before centrifugation.
(§5) The diluted starter solution was added in sufficient quantity to the dispensing plate to facilitate the multichannel pipette aspiration operation.
(§6) The reaction was carried out on a warm incubation shaker and 15 μL of starter solution/sample is added to the plate using a multichannel pipette. The reaction was mixed with a slight shake to initiate the reaction, which was accurately timed and recorded using a timer. In general, samples with shorter reaction times are initiated late and vice versa early, allowing sufficient time for multiple plate manipulation to terminate the reaction. For example, as for the four experiments of 5, 15, 30, and 60 min, the 60 min experiment was started first, and the 5 min experiment was started later, so as to leave sufficient time for the 5 min group.
(§7) After the reaction time had elapsed, all the solution in the plate was aspirated using the multichannel pipette and added to the precipitation plate to terminate the reaction at that point in time. After all reactions had been terminated, the plates were shaken for ten minutes on a plate shaker at 600 rpm to precipitate the protein. The plate was centrifuged at 4° C. for 15 minutes at maximum rpm. 80 μL of supernatant was taken, 320 μL of pure water was added and mixed for LC-MS analysis.
For orientation: Liver microsomes are vesicles of endoplasmic reticulum, rich in cytochrome P450 enzymes.

Data set [2] can be described thus: Liver microsomes in vitro stability (human). The note with it: read-out: T1/2/min (H). The format is in vitro ADME. As to the method: as §1, §2, §3, §4, §5, §6, §7

Chain of CYP2C19 (P33261 whole entry, species assumed): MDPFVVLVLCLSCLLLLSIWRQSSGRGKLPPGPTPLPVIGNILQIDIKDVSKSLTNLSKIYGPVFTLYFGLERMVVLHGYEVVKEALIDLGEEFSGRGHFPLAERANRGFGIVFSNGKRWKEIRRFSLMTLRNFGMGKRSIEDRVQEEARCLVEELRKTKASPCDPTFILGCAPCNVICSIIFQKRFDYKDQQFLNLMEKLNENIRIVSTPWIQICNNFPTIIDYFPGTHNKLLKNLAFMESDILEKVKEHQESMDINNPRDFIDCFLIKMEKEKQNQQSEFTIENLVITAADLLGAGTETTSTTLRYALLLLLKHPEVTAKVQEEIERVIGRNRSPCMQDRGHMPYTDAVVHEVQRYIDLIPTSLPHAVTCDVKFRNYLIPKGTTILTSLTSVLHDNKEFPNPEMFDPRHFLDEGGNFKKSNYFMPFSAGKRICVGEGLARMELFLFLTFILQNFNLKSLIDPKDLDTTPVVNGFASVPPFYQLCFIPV
Chain of CYP2D6 (P10635 whole entry, species assumed): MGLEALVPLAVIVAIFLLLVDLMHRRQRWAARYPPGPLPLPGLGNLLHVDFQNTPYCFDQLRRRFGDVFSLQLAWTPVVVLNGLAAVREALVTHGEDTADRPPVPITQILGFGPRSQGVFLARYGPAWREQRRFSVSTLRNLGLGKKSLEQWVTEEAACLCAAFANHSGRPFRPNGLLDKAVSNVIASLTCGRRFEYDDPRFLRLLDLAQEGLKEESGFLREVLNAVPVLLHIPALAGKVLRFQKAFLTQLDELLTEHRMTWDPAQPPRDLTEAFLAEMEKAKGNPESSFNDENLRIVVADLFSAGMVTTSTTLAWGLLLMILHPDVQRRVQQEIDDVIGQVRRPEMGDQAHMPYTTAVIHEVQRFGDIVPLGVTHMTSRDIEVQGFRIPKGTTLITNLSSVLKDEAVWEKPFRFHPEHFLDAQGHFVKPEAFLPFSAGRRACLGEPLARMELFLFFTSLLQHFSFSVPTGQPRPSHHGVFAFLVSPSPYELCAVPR

Regarding `C=CCn1c(=O)c2cnc(Nc3ccc(N4CCN(C)CC4)cc3)nc2n1-c1cccc(C(C)(C)O)n1` [AZD1775], the inhibition at 30 min, 1 µM came out at 20.2% on CYP1A2, 25.4% at CYP2C19, 7.1% on CYP2C8 and 3.4% against CYP2D6. Moreover, the inhibition at 30 min, 10 µM against CYP1A2 worked out at 17.5%; against CYP2C19, 71.9%; against CYP2C8 it was 17.3%; at CYP2B6, 17.4%; against CYP2D6, 1.5%.

In the case of `C=CCn1c(=O)c2cnc(Nc3ccc(N4CC5CC(C4)N5C)cc3)nc2n1-c1cccc(C(C)(C)O)n1` [Compound 27], the half-life at 1 µM in data set [1] was determined as 0.55 h; in data set [2] it was 1.75 h.
